# Assay results reported in patent US20040121316A1 (priority 2002, published 2004).
# Like-named read-outs stand apart in the source and are kept apart here.
# Columns and labels:
# HIV-1 30N82I88D = assay: microbe, parasite or virus in culture; type: cell-based; conditions: Human immunodeficiency virus 1, read-out: Cell-based assay (MT-4) EC50/nM 30N82I88D
# WT HIV-1 [1] = assay: microbe, parasite or virus in culture; type: cell-based
# HIV-1 84V90M = assay: microbe, parasite or virus in culture; type: cell-based
# 84V90M HIV protease = 84V90M HIV protease (Human immunodeficiency virus type 1 group M subtype B, UniProt P04585, I572V/L578M); assay: biochemical; parameters: species or system HIV-1
# [2] = tested on: recombinant HIV-1 30N 50S 82I 88D; assay: microbe, parasite or virus in culture; type: cell-based
# WT HIV-1 [3] = assay: microbe, parasite or virus in culture; type: cell-based; remark: listed apart in the source
# [4] = tested on: recombinant HIV-1 46I 47V 50V; assay: microbe, parasite or virus in culture; type: cell-based
# [5] = tested on: recombinant HIV-1 10I 48V 71V 82A 90M; assay: microbe, parasite or virus in culture; type: cell-based
# [6] = tested on: recombinant HIV-1 48V 54V 71V 82S; assay: microbe, parasite or virus in culture; type: cell-based
# [7] = tested on: recombinant HIV-1 10I 48V 54V 82A; assay: microbe, parasite or virus in culture; type: cell-based
# HIV-1 48V54V82A = assay: microbe, parasite or virus in culture; type: cell-based; conditions: Human immunodeficiency virus 1, read-out: Cell-based assay (MT-4) EC50/nM 48V54V82A
# [8] = tested on: recombinant HIV-1 10I 84V 71V 73S 90M; assay: microbe, parasite or virus in culture; type: cell-based
# [9] = tested on: recombinant HIV-1 strains with resistance mutations in the protease gene; assay: Cross-Resistance Profile Assay, whole panel; type: cell-based; conditions: {}
# [10] = tested on: wild-type HIV-1 strain IIIB; assay: microbe, parasite or virus in culture; type: cell-based; conditions: Human immunodeficiency virus 1, IIIB
# HIV-1 46I50V = assay: microbe, parasite or virus in culture; type: cell-based; conditions: Human immunodeficiency virus 1, read-out: Cell-based assay (MT-4) EC50/nM 46I50V
# [11] = Human immunodeficiency virus 1, read-out: Cell-based assay (MT-4) EC50/nM WT
# [12] = Human immunodeficiency virus 1, read-out: Cell-based assay (MT-4) EC50/nM 84V90M
# [13] = MT-4 cells, strain printed as 30N 82I 88D, read-out: Cell-based assay (MT-4) EC50/nM 30N 82I 88D
# [14] = MT-4 cells, strain printed as 47I50V, read-out: Cell-based assay (MT-4) EC50/nM 47I 50V
# [15] = read-out: Cell-based assay (MT-4) EC50/nM 48V 82A 90M, MT-4 cells, strain printed as 48V 82A 90M
# [16] = MT-4 cells, strain printed as 48V 54V 82S, read-out: Cell-based assay (MT-4) EC50/nM 48V 54V 82S
# [17] = MT-4 cells, strain printed as 48V 54V 82A, read-out: Cell-based assay (MT-4) EC50/nM 48V 54V 82A
# [18] = Human immunodeficiency virus 1, MT4, read-out: Cell-based assay (MT-4) EC50/nM 30N 82I 88D
# [19] = Human immunodeficiency virus 1, MT4, read-out: Cell-based assay (MT-4) EC50/nM WT
# [20] = Human immunodeficiency virus 1, MT4, read-out: Cell-based assay (MT-4) EC50/nM 47I 50V
# [21] = Human immunodeficiency virus 1, MT4, read-out: Cell-based assay (MT-4) EC50/nM 84V 90M
# [22] = Human immunodeficiency virus 1, MT4, read-out: Cell-based assay (MT-4) EC50/nM 48V 82A 90M
# [23] = Human immunodeficiency virus 1, MT4, read-out: Cell-based assay (MT-4) EC50/nM 48V 54V 82S
# [24] = Human immunodeficiency virus 1, MT4, read-out: Cell-based assay (MT-4) EC50/nM 48V 54V 82A
smiles,measurement,setting,value
O=C(O)c1cccc(CN2C(=O)N(Cc3ccc(O)cc3)C(Cc3ccccc3)C(O)C(O)C2Cc2ccccc2)c1 (stereo not drawn),EC50,HIV-1 30N82I88D,887 nM
same,EC50,WT HIV-1 [1]; [11],3060 nM
same,EC50,HIV-1 84V90M; [12],> 6000 nM
same,IC50,84V90M HIV protease,174 nM
Nc1n[nH]c2ccc(CN3C(=O)N(Cc4cccc(C(=O)O)c4)C(Cc4ccccc4)C(O)C(O)C3Cc3ccccc3)cc12 (stereo not drawn),EC50,HIV-1 30N82I88D,> 6000 nM
same,EC50,HIV-1 84V90M; [12],> 6000 nM
same,IC50,84V90M HIV protease,27 nM
CCOP(=O)(COc1ccc(CC2C(O)C(O)C(Cc3ccccc3)N(Cc3ccccc3)C(=O)N2Cc2ccccc2)cc1)OCC (stereo not drawn),EC50,[2]; [13],293 nM
same,EC50,"WT HIV-1 [3]; MT-4 cells, WT, read-out: Cell-based assay (MT-4) EC50/nM WT",107 nM
same,EC50,[4]; [14],589 nM
same,EC50,[5]; [15],3290 nM
same,EC50,[6]; [16],1900 nM
same,EC50,[7]; [17],1440 nM
Nc1n[nH]c2ccc(CN3C(=O)N(CCCCOCP(=O)(O)O)C(Cc4ccccc4)C(O)C(O)C3Cc3ccccc3)cc12 (stereo not drawn) [CH2 OCH2PO3H2],EC50,WT HIV-1 [1]; [11],1760 nM
same,EC50,HIV-1 84V90M; [12],> 4240 nM
same,IC50,84V90M HIV protease,205 nM
CCOP(=O)(COCCCCN1C(=O)N(Cc2ccc3[nH]nc(N)c3c2)C(Cc2ccccc2)C(O)C(O)C1Cc1ccccc1)OCC (stereo not drawn) [CH2OCH2PO3Et2],EC50,HIV-1 30N82I88D,267 nM
same,EC50,WT HIV-1 [1]; [11],119 nM
same,EC50,HIV-1 84V90M; [12],3300 nM
same,IC50,84V90M HIV protease,123 nM
same,EC50,HIV-1 48V54V82A,430 nM
CCOP(=O)(COc1ccc(CC2C(O)C(O)C(Cc3ccccc3)N(Cc3cccc(N)c3)C(=O)N2Cc2cccc(N)c2)cc1)OCC (stereo not drawn) [H/Ph-mNH2/OCH2PO3Et2],EC50,[2]; [18],16 nM
same,EC50,WT HIV-1 [3]; [19],65 nM
same,EC50,[4]; [20],46 nM
same,EC50,[8]; [21],328 nM
same,EC50,[5]; [22],74 nM
same,EC50,[6]; [23],146 nM
same,EC50,[7]; [24],168 nM
CCOP(=O)(COc1ccc(CC2C(O)C(O)C(Cc3ccccc3)N(Cc3ccc(O)cc3)C(=O)N2Cc2ccc(O)cc2)cc1)OCC (stereo not drawn) [H/Ph-pOH/OCH2PO3Et2],EC50,[2]; [18],90 nM
same,EC50,WT HIV-1 [3]; [19],65 nM
same,EC50,[4]; [20],144 nM
same,EC50,[5]; [22],146 nM
same,EC50,[6]; [23],222 nM
same,EC50,[7]; [24],128 nM
O=C1N(Cc2ccccc2)C(Cc2ccccc2)C(O)C(O)C(Cc2ccc(O)cc2)N1Cc1ccccc1 (stereo not drawn) [H/Ph/OH],EC50,[2]; [18],2950 nM
same,EC50,WT HIV-1 [3]; [19],1260 nM
same,EC50,[8]; [21],> 6000 nM
same,EC50,[7]; [24],> 6000 nM
"CC(C)(C)NC(=O)[C@@H]1CN(Cc2cccnc2)CCN1C[C@@H](O)C[C@@H](Cc1ccccc1)C(=O)N[C@H]1c2ccccc2C[C@H]1O [Indinavir, reference compound]",Total No. of Resistant Viruses,[9],8
same,EC50,[10],< 50 nM
CCOP(=O)(COCCCN1C(=O)N(Cc2ccc3[nH]nc(N)c3c2)C(Cc2ccccc2)C(O)C(O)C1Cc1ccccc1)OCC (stereo not drawn) [OCH2PO3Et2],EC50,HIV-1 30N82I88D,145 nM
same,EC50,WT HIV-1 [1]; [11],356 nM
same,EC50,HIV-1 84V90M; [12],> 6000 nM
same,IC50,84V90M HIV protease,157 nM
same,EC50,HIV-1 48V54V82A,175 nM
same,EC50,HIV-1 46I50V,138 nM
Nc1n[nH]c2ccc(CN3C(=O)N(CCCOCP(=O)(O)O)C(Cc4ccccc4)C(O)C(O)C3Cc3ccccc3)cc12 (stereo not drawn) [OCH2PO3H2],EC50,WT HIV-1 [1]; read-out: Cell-based assay (MT-4) EC50/nM WT,1070 nM
same,EC50,"HIV-1 84V90M; MT-4, 84V90M, read-out: Cell-based assay (MT-4) EC50/nM 84V90M",> 6000 nM
CCOP(=O)(CCNC(=O)Oc1ccc(CC2C(O)C(O)C(Cc3ccc(OC)cc3)N(Cc3cccc(N)c3)C(=O)N2Cc2cccc(N)c2)cc1)OCC (stereo not drawn) [OCH3/Ph-mNH2/OCONH(CH2)2PO3Et2],EC50,[2]; [13],77 nM
same,EC50,[4]; [14],184 nM
same,EC50,"[8]; read-out: Cell-based assay (MT-4) EC50/nM 84V 90M, MT-4 cells, strain printed as 84V 90M",2260 nM
same,EC50,[5]; [15],215 nM
same,EC50,[6]; [16],214 nM
same,EC50,[7]; [17],262 nM
